Measured values as given in the NIST ThermoML archive (doi:10.1021/acs.jced.7b00464).

Assay: mn = molality of the nth substance listed, in mol/kg
Details: 101.3 kPa, Liquid; for speed of sound: Frequency=3 MHz, Single path-length method; for mass density: Vibrating tube method

CCCCn1cc[n+](C)c1.[Br-] [1-butyl-3-methylimidazolium bromide] + O
Details | mass density, 293.15 K [kg/m3] | mass density, 298.15 K [kg/m3] | mass density, 303.15 K [kg/m3] | mass density, 308.15 K [kg/m3] | speed of sound, 293.15 K [m/s] | speed of sound, 298.15 K [m/s] | speed of sound, 303.15 K [m/s] | speed of sound, 308.15 K [m/s]
m1 = 0.1009 | 1003.27 | 1002.03 | 1000.58 | 998.918 | 1493.5 | 1506.5 | 1517.9 | 1527.7
m1 = 0.2003 | 1008.11 | 1006.83 | 1005.32 | 1003.62 | 1503.6 | 1515.8 | 1526.2 | 1535.2
m1 = 0.2985 | 1012.68 | 1011.33 | 1009.77 | 1008 | 1512.9 | 1524.5 | 1534.1 | 1542.4
m1 = 0.4006 | 1017.54 | 1016.13 | 1014.5 | 1012.7 | 1522.6 | 1533.1 | 1542 | 1549.4

CCCCn1cc[n+](C)c1.[Cl-] [1-butyl-3-methylimidazolium chloride] + O
Details | mass density, 293.15 K [kg/m3] | mass density, 298.15 K [kg/m3] | mass density, 303.15 K [kg/m3] | mass density, 308.15 K [kg/m3] | speed of sound, 293.15 K [m/s] | speed of sound, 298.15 K [m/s] | speed of sound, 303.15 K [m/s] | speed of sound, 308.15 K [m/s]
m1 = 0.101 | 999.535 | 998.308 | 996.883 | 995.222 | 1496.7 | 1509.8 | 1521.1 | 1530.8
m1 = 0.1997 | 1000.82 | 999.565 | 998.065 | 996.342 | 1510.4 | 1522.7 | 1533 | 1542
m1 = 0.3007 | 1002.1 | 1000.79 | 999.244 | 997.484 | 1523.6 | 1534.7 | 1544.3 | 1552.7
m1 = 0.4004 | 1003.37 | 1002 | 1000.4 | 998.586 | 1536.1 | 1546.5 | 1555.3 | 1562.6
